Results published in PubChem BioAssay AID1963840 (Molecular Pharmacology Branch, DTP, NCI, 2024).

Tested on: 695427-040-R-J1-PDC complex spheroid viability
Test: Anticancer human tumor 695427-040-R-J1-PDC patient-derived colon adenocarcinoma cell line growth inhibition [POLQ]
Conditions: for IC50: curve of first compound; for viability, T/C: stronger effect = lower value
Procedure: Multicellular complex tumor spheroid response to Polymerase (POL) inhibitors (novobiocin, ART-558, RP6685) in combination with a variety of drugs and investigational agents in selected tumor cell lines
The POL inhibitors (novobiocin, ART-558, and RP6685) were evaluated both individually and in combination with standard of care and investigational anticancer small molecules within a complex spheroid model of solid tumors. . Complex spheroids include a stromal component modeled by human endothelial cells (HUVEC) and fibroblasts modeled by human mesenchymal stem cells (MSCs). The concentration ranges selected for each drug and investigational agent were based upon clinically achievable concentrations if the clinical Cmax of the agent was known.
Compounds. The drugs and investigational agents: novobiocin (NSC847541), ART-558 (NSC835418), RP-6685 (NSC848927), peposertib (NSC802822), ceralasertib (NSC780249), elimusertib (NSC800525), camonsertib (NSC841442), AZD-1390 (NSC803789), olaparib (NSC753686), talazoparib (NSC767125), rucaparib (NSC756644), sotorasib (NSC818433), MRTX-1133 (NSC836407), SN-38 (NSC673596), topotecan (NSC609699), epotoside (NSC141540), doxorubicin (NSC123127), gemcitabine (NSC613327), 5-fluorouracil (NSC19893), paclitaxel (NSC125973), vemurafenib (NSC761431), MSA-2 (NSC828583), SN-011 (NSC837082), adavosertib (NSC754352), prexasertib (NSC758257), carboplatin (NSC241240) and oxaliplatin (NSC266046), were obtained from the National Cancer Institute (NCI) Developmental Therapeutics Program Chemical Repository (21). The FDA-approved anticancer drug set is available from the Developmental Therapeutics Program at https://dtp.cancer.gov/organization/dscb/obtaining/. […] The stock solutions were prepared in dimethyl sulfoxide (DMSO, Sigma-Aldrich, St. Louis, MO, cat. D2650), except for the platinum compounds which were prepared in saline (Quality Biological, Gaithersburg, MD, cat. 114-055-101), at 800-fold the tested concentration and stored at -70 degrees C prior to their use. All drugs and investigational agents were tested over a range starting from a high concentration at or near the clinical Cmax and decreasing in half-log increments. If the clinical Cmax for an agent had not been determined, the highest concentration tested was 10 microM, except for SN-38, which was tested at a high concentration of 1 microM.
Cell Culture. All cells were maintained in an incubator at 37 degrees C and 5% CO2 with 95% humidity. The PDC lines were cultured according to standard operating procedures established by the NCI PDMR (https://pdmr.cancer.gov). Table 3 of the manuscript, lists the cell lines along with the number of the three cell types plated to form the mct-spheroids and media for tumor cell growth. After thawing, all PDC lines, except 997537-175-T-J1-PDC and 415267-285-R-J2-PDC, were cultured in Matrigel-coated flasks prepared with a working solution of 1X Ham's F-12 nutrient mix, without supplementation (Thermo Fisher Scientific, cat. 11765054), 100 U/mL penicillin-streptomycin (Thermo Fisher Scientific, cat. 15140122), and 2.5% Matrigel (Corning Inc., Corning, NY, cat. 354248) for the first three passages. The two PDC lines 997537-175-T-J1-PDC and 415267-285-R-J2-PDC were cultured on uncoated flasks. The 857933-349-R-J2-PDC line was cultured in 6C/Colon 1B media containing advanced DMEM/F-12 (Thermo Fisher Scientific, cat. 12634028), 10 mM HEPES (Thermo Fisher Scientific, cat. 15630080), 1X GlutaMAX supplement (Thermo Fisher Scientific, cat. 35050061), 0.1 mg/mL primocin (InvivoGen, San Diego, CA, cat. ant-pm-2), 10% defined fetal bovine serum, heat inactivated (HyClone Laboratories Inc., Logan, UT, cat. SH30070.03HI), 50% L-WRN conditioned media (ATCC, cat. CRL-3276), 1.25 mM N-Acetyl-L-cysteine (Sigma-Aldrich, cat. A9165), 10 mM nicotinamide (Sigma-Aldrich, cat. N0636), 1X B-27 supplement (Thermo Fisher Scientific, cat. 17504044), 1X N-2 supplement (Thermo Fisher Scientific, cat. […]

[1] = second compound 0.0316 µM, first compound 0.0316 µM
[2] = second compound 0.0316 µM, first compound 0.1 µM
[3] = second compound 0.0316 µM, first compound 0.316 µM
[4] = second compound 0.0316 µM, first compound 1 µM
[5] = second compound 0.0316 µM, first compound 3.16 µM
[6] = second compound 0.0316 µM, first compound 10 µM
[7] = second compound 0.1 µM, first compound 0.0316 µM
[8] = second compound 0.1 µM, first compound 0.1 µM
[9] = second compound 0.1 µM, first compound 0.316 µM
[10] = second compound 0.1 µM, first compound 1 µM
[11] = second compound 0.1 µM, first compound 3.16 µM
[12] = second compound 0.1 µM, first compound 10 µM
[13] = second compound 0.316 µM, first compound 0.0316 µM
[14] = second compound 0.316 µM, first compound 0.1 µM
[15] = second compound 0.316 µM, first compound 0.316 µM
[16] = second compound 0.316 µM, first compound 1 µM
[17] = second compound 0.316 µM, first compound 3.16 µM
[18] = second compound 0.316 µM, first compound 10 µM
[19] = second compound 1 µM, first compound 0.0316 µM
[20] = second compound 1 µM, first compound 0.1 µM
[21] = second compound 1 µM, first compound 0.316 µM
[22] = second compound 1 µM, first compound 1 µM
[23] = second compound 1 µM, first compound 3.16 µM
[24] = second compound 1 µM, first compound 10 µM
[25] = second compound 3.16 µM, first compound 0.0316 µM
[26] = second compound 3.16 µM, first compound 0.1 µM
[27] = second compound 3.16 µM, first compound 0.316 µM
[28] = second compound 3.16 µM, first compound 1 µM
[29] = second compound 3.16 µM, first compound 3.16 µM
[30] = second compound 3.16 µM, first compound 10 µM
[31] = second compound 10 µM, first compound 0.0316 µM
[32] = second compound 10 µM, first compound 0.1 µM
[33] = second compound 10 µM, first compound 0.316 µM
[34] = second compound 10 µM, first compound 1 µM
[35] = second compound 10 µM, first compound 3.16 µM
[36] = second compound 10 µM, first compound 10 µM
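Also: spheroids exposed to compounds for seven days.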
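For viability, T/C in this document: 100% = DMSO vehicle control viability.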

Compound: C=CC(=O)N1CCN(c2nc(=O)n(-c3c(C)ccnc3C(C)C)c3nc(-c4c(O)cccc4F)c(F)cc23)C(C)C1 (centres undefined) + Nc1ccc(C#CCN(C(=O)Cc2ncc(C(F)(F)F)cc2C(F)(F)F)c2ccc(F)cc2)nn1
- IC50 (second compound 0.0316 µM): > 10 µM
- IC50 (second compound 0.1 µM): > 10 µM
- IC50 (second compound 0.316 µM): > 10 µM
- IC50 (second compound 1 µM): > 10 µM
- IC50 (second compound 3.16 µM): > 10 µM
- IC50 (second compound 10 µM): > 10 µM
- viability, T/C [1]: 108%
- viability, T/C [2]: 104%
- viability, T/C [3]: 110%
- viability, T/C [4]: 111%
- viability, T/C [5]: 110%
- viability, T/C [6]: 104%
- viability, T/C [7]: 108%
- viability, T/C [8]: 110%
- viability, T/C [9]: 107%
- viability, T/C [10]: 92.2%
- viability, T/C [11]: 104%
- viability, T/C [12]: 113%
- viability, T/C [13]: 116%
- viability, T/C [14]: 107%
- viability, T/C [15]: 102%
- viability, T/C [16]: 105%
- viability, T/C [17]: 120%
- viability, T/C [18]: 95.3%
- viability, T/C [19]: 102%
- viability, T/C [20]: 95.2%
- viability, T/C [21]: 97.9%
- viability, T/C [22]: 101%
- viability, T/C [23]: 107%
- viability, T/C [24]: 96.9%
- viability, T/C [25]: 105%
- viability, T/C [26]: 101%
- viability, T/C [27]: 104%
- viability, T/C [28]: 97.3%
- viability, T/C [29]: 107%
- viability, T/C [30]: 98.3%
- viability, T/C [31]: 97.2%
- viability, T/C [32]: 84.4%
- viability, T/C [33]: 102%
- viability, T/C [34]: 96.3%
- viability, T/C [35]: 121%
- viability, T/C [36]: 97.6%

Compound: CCc1cc2c(N3CCc4c(cc(Cn5ccnc5)cc4-c4cn(C)nc4C(F)(F)F)C3=O)cc(C)nc2c(OC)n1 + Nc1ccc(C#CCN(C(=O)Cc2ncc(C(F)(F)F)cc2C(F)(F)F)c2ccc(F)cc2)nn1
- IC50 (second compound 0.0316 µM): > 10 µM
- IC50 (second compound 0.1 µM): > 10 µM
- IC50 (second compound 0.316 µM): > 10 µM
- IC50 (second compound 1 µM): > 10 µM
- IC50 (second compound 3.16 µM): > 10 µM
- IC50 (second compound 10 µM): > 10 µM
- viability, T/C [1]: 102%
- viability, T/C [2]: 106%
- viability, T/C [3]: 107%
- viability, T/C [4]: 108%
- viability, T/C [5]: 113%
- viability, T/C [6]: 108%
- viability, T/C [7]: 120%
- viability, T/C [8]: 103%
- viability, T/C [9]: 103%
- viability, T/C [10]: 101%
- viability, T/C [11]: 112%
- viability, T/C [12]: 102%
- viability, T/C [13]: 102%
- viability, T/C [14]: 98.9%
- viability, T/C [15]: 99.9%
- viability, T/C [16]: 101%
- viability, T/C [17]: 113%
- viability, T/C [18]: 98.8%
- viability, T/C [19]: 112%
- viability, T/C [20]: 95.8%
- viability, T/C [21]: 99.3%
- viability, T/C [22]: 105%
- viability, T/C [23]: 98.5%
- viability, T/C [24]: 98.3%
- viability, T/C [25]: 109%
- viability, T/C [26]: 116%
- viability, T/C [27]: 88.3%
- viability, T/C [28]: 95.3%
- viability, T/C [29]: 103%
- viability, T/C [30]: 108%
- viability, T/C [31]: 107%
- viability, T/C [32]: 94.6%
- viability, T/C [33]: 95.6%
- viability, T/C [34]: 91.8%
- viability, T/C [35]: 98.7%
- viability, T/C [36]: 97.9%
